Patent US10238713B2, “Cyclic tetrapeptides and therapeutic applications thereof” (LODZ UNIVERSITY OF TECHNOLOGY, priority 2010, dated 2019)
Non-standard residues stand in square brackets, D forms with d. Residues, ends and D or L forms follow the SMILES beside them. β3hF = N[C@H](CC(=O)O)Cc1ccccc1

How the values were obtained:
[1] = tested on: CBA mice, cellular immune response to ovalbumin; assay: Delayed type hypersensitivity (DTH) test to ovalbumin; type: in vivo; settings: two 100 μg intraperitoneal doses; FIG. 7
Description: Male CBA mice 8-12 weeks old were delivered by The Institute of Laboratory Medicine, Lodz, Poland. The mice had free access to water and pelleted food. Ovoalbumin was from Sigma and the adjuvants from Difeo.
Mice were sensitized subcutaneously with 5 μg of ovalbumin (OVA) emulsified in Freund's complete adjuvant in the tail base. After 4 days the mice were challenged with 50 μg of OVA in Freund's incomplete adjuvant in the hind footpads. Following the next 24 hours, the footpad thickness was measured using a caliper. Controls (background response mice) were not sensitized but received the challenging dose of OVA. The compound of formula I-A and the reference compound were administered to mice in two 100 μg intraperitoneal doses, 2 h before and 24 h after the sensitizing dose of antigen.

[2] = tested on: mice, carrageenan-induced foot pad edema; assay: Carrageenan-induced foot-pad edema test; type: in vivo, mouse; settings: 4 h after carrageenan; peptides 250 μg i.p., DEX 25 μg i.p., 30 min before; FIGS. 17A-17C
Summary of the method: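 Mice received peptide 250 μg i.p. (DMSO/0.9% NaCl vehicle) 30 min before intradermal injection of 50 μl 2% carrageenan into the hind foot pad; dexamethasone 25 μg i.p. as reference. Foot-pad thickness measured by spring caliper at 2, 3 and 4 h; mean increase in mm ±SE, 5 mice/group.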

[3] = tested on: mice, carrageenan air pouch; assay: Carrageenan air-pouch test (exudate cell number); type: in vivo, mouse; settings: peptides 100 μg i.p. one hour before carrageenan, 24 h; FIGS. 18A-18B
Summary of the method: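 Mice received peptide i.p. (100 μg, from DMSO/0.9% NaCl) one hour before intra-pouch 1% carrageenan in a 3-day dorsal air pouch; dexamethasone i.p. served as reference. Exudate was aspirated 24 h later after adding 1 ml saline, and cells were counted by hemocytometer (×10^6 per mouse, mean ±SE, 10 mice/group).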

**Q.** For O=C1C[C@H](Cc2ccccc2)NC(=O)[C@@H]2CCCN2C(=O)[C@@H]2CCCN2C(=O)[C@H](Cc2ccccc2)N1 [I-A] (cyclo(FPP[β3hF])), which “effect on delayed-type hypersensitivity reaction to OVA (footpad thickness)” value [1] is on record?
**A.** inhibited the delayed-type hypersensitivity reaction to OVA

**Q.** What about the “suppressive action on DTH compared with reference compounds” value [1] of the same compound?
**A.** stronger than those of CLA and CsA

**Q.** And the “foot pad edema (increase of foot pad thickness), P vs Control” value [2]?
**A.** 0.0001

**Q.** And the “air pouch exudate cell number, P vs Control” value [3]?
**A.** 0.0005
